Assay results as given in US7723473B2, “Peptide antagonists of TGF-beta family members and therapeutic uses thereof” (St. Louis University, priority 1997, dated 2010).
Entries after “also recorded” stand apart in the source; their conditions may differ.

How the values were obtained:
TGF-β receptors = test: Inhibition of specific binding of 125I-TGF-β1 to TGF-β receptors in mink lung epithelial cells; conditions: peptide at 34 μM
Method: Specific binding of ^125I-labeled TGF-β1, TGF-β2, and TGF-β3 (^125I-TGF-β1, ^125I-TGF-β2, and ^125I-TGF-β3) to TGF-β receptors in mink lung epithelial cells. ^125I-TGF-β1, ^125I-TGF-β2, and ^125I-TGF-β3 were prepared by iodination of TGF-β1, TGF-β2, and TGF-β3 with Na^125I as described previously (Ref. 7). The specific radioactivities of ^125I-TGF-β1, ^125I-TGF-β2, and ^125I-TGF-β3 were 1-3×10^5 cpm/ng. Mink lung epithelial cells were grown on 24-well clustered dishes to near confluence in Dulbecco's modified Eagle medium (DMEM) containing 10% fetal calf serum. The epithelial cells were incubated with 0.1 nM ^125I-TGF-β1, ^125I-TGF-β2, or ^125I-TGF-β3 both with and without 100-fold excess of unlabeled TGF-β1, TGF-β2, or TGF-β3 in binding buffer (Ref. 7). After 2.5 hr at 0° C., the cells were washed two times with binding buffer, and the cell-associated radioactivity was determined. […] All experiments were carried out in triplicate cell cultures.

[1] = system: mink lung epithelial cells; test: Blocking of TGF-β1-induced growth inhibition ([methyl-3H]thymidine incorporation, DNA synthesis); type: cell-based
Method: [Methyl-^3H]thymidine Incorporation—Mink lung epithelial cells grown on 24-well clustered dishes were incubated with various concentrations of TGF-β1 in the presence and absence of peptide β1^25 (41-65) or with various concentrations of peptide β1^25 (41-65)-CA, and peptide β1^25 (41-65)-BSA in DMEM containing 0.1% fetal calf serum. After 16 hr at 37° C., the cells were pulsed with 1 μCi/ml of [methyl-^3H]thymidine for 4 hr. The cells were then washed twice with 1 ml of 10% trichloroacetic acid and once with 0.5 ml of ethanol:ether (2:1, v/v). The cells were then dissolved in 0.4 ml of 0.2 N NaOH and counted with a liquid scintillation counter.

[2] = system: type V TGF-β receptor (TβR-V); test: 125I-TGF-β1-affinity labeling of cell-surface type V TGF-β receptor in mink lung epithelial cells; type: binding; conditions: peptide at 2.3 μM
Method: ^125I-TGF-β1-affinity labeling of cell-surface TGF-β receptors in mink lung epithelial cells. Mink lung epithelial cells grown on 60-mm Petri dishes were incubated with 0.1 nM […] the presence of various concentrations of peptide β1^25 (41-65) or peptide β3^25 (41-65) in binding buffer. After 2.5 hr at 0° C., ^125I-TGF-β1-affinity labeling was carried out in the presence of DSS as described. The ^125I-TGF-β1-affinity-labeled TGF-β receptors were analyzed by 5% SDS-polyacrylamide gel electrophoresis under reducing conditions and autoradiography.

[3] = Observation of deleterious effects in treated animals; type: in vivo, pig, rabbit; conditions: topical, any animal
Method: (§1) Burn wound model. Four pigs weighing 20-25 kg were anesthetized by intramuscular injection of ketamine (5 mg/kg), strenil® (cazaporonum) (20 mg/kg) and atropine (5 mg/kg). Six uniform burn wounds (110° C., 30 sec) were then made symmetrically on the back of each pig using a modified soldering iron (Ref. 15) with a flat contact area of 20 cm^2. […] After wounding, a thin layer of Intrasite®) gel containing either peptide β1^25 (41-65), buffer or nothing else was applied to the wounds. All wounds were dressed with paraffin gauze. The dressing was changed every two days for the first 10 days and twice a week for the next 30 days. Gel comprising peptide β1^25 (41-65) and control gel were applied and wound measurements were made at each dressing change.
Excision wound model. Four pigs received intramuscular injection of ketamine, strenil® and atropine as described above. Six excision injuries were generated by removing full-thickness sections of skin (3×3 cm) from standardized sites on the back of each animal using a scapel. Three rabbits, were anesthetized by intramuscular injection of ketamine (5 mg/kg). Three excision injuries were produced in each by removing full-thickness sections of skin (0.5×1 cm) from each ear. […]

burn wounds = test: Pig burn wound model; type: in vivo; conditions: for re-epithelialization / healing rate versus vehicle: after post-burn day 10; for scarring versus vehicle-only control wounds: post-burn day 35 (and 41)
Method: (§2) Preparation of IntraSite® gel containing TGF-β peptantagonist (peptide TGF-beta antagonist). 1 ml of sterile 6 mM peptide β1^25 (41-65) in phosphate buffered saline or 1 ml of sterile phosphate buffered saline was vigorously mixed with 3 ml of IntraSite® gel using two 10 ml syringes connected with a three-way connector. […] However, 1.5 mM of peptide β1^25 (41-65) was used throughout the experiments described below.
as §1
(§3) Assessment of wound healing. Wound healing was assessed by evaluating the rates of wound re-epithelization and contraction. The open wound area and the area enclosed by the normal hair bearing skin were measured using the macrophotography technique (Ref. 14). The healing rate was monitored every two days for the first 10 days and twice a week for 30 more days. Wound reepithelialization as a percent of the original wound size was calculated using the following formula:
[formula] where E=rate of re-epithelialization in percent; An=area enclosed by the normal hair bearing skin on a given post-burn day; Ao=area of open wound on the same day as was measured. Wound contraction was calculated using the following formula:
(§4) [formula] where C=rate of wound contraction in percent; Al=wound area as measured immediately following the burn or excision injury; An=area enclosed by normal hair bearing skin.
Measurement of scar. The volumes of scar tissue were estimated by multiplying their thickness by the size of the scar on post-burn day 41 in pigs and post-excision day 10 in rabbits.

excision wounds = test: Pig excision wound model; type: in vivo; conditions: for deposition / immunostaining of fibronectin in excision wounds / deposition / immunostaining of type I collagen in excision wounds: post-excision day 30 (legend: day 28), immunohistochemistry
Method: as §2
Excision wound model. Four pigs received intramuscular injection of ketamine, strenil® and atropine as described above. Six excision injuries were generated by removing full-thickness sections of skin (3×3 cm) from standardized sites on the back of each animal using a scapel. Three rabbits, were anesthetized by intramuscular injection of ketamine (5 mg/kg). Three excision injuries were produced in each by removing full-thickness sections of skin (0.5×1 cm) from each ear. After wounds, a thin layer of IntraSite® gel containing peptide β1^25 (41-65) was applied to alternating wounds on each animal and IntraSite® gel+buffer was applied to the other half. The excision wounds were then dressed with a paraffin gauze. For pig experiments, the dressing was changed every two days for the first 10 days and twice a week for the next 30 days. For rabbit experiments, the dressing was changed for the first 3 days. Gel containing peptide β1^25 (41-65) or control gel was applied at each dressing change.
as §3, §4
Immunohistochemistry. The wounds were frozen immediately after being removed from animals on post-excision day 30. Serial sections were placed on polylysine-coated slides. The sections containing wound areas were stained with hematoxylin/eosin and monoclonal antibodies to type I collagen and fibronectin and biotin-conjugated rabbit anti-mouse IgG/streptavidin-conjugated horseradish peroxidase (Ref. 16). The stained sections were examined and photographed by light microscopy.

[4] = 1.5 mM in gel, topical, listed as TGF-β peptantagonist

## ANFCLGPCPYIWSLDTQYSKVLALY [peptide β1^25 (41-65)]
TGF-β receptors
  inhibition of 125I-TGF-β1 binding to TGF-β receptors: completely inhibited
[1]; 0.025 ρM and 0.25 ρM TGF-β1, 18 μM peptide
  blocking of DNA synthesis inhibition induced by TGF-β1: completely blocked
[1]; 0.25 ρM TGF-β1, various concentrations of peptide
  blocking of TGF-β1-induced growth inhibition, dose dependence: concentration-dependent manner
[2]
  inhibition of 125I-TGF-β1-affinity labeling of the type V TGF-β receptor: almost completely abolished
[3]
  deleterious effects: no apparent deleterious effects
Burn wounds; 1.5 mM in gel, topical
  wound contraction versus vehicle only: less contraction
  re-epithelialization / healing rate versus vehicle: rapid re-epithelialization
Burn wounds; [4]
  re-epithelialization / healing rate versus vehicle: healed faster
  wound contraction versus vehicle only: contracted significantly
Burn wounds; 1.5 mM in gel, topical, n=4
  re-epithelialization complete: 26±2 post-burn day
Burn wounds; 0.75 and 1.5 mM peptide in gel, topical
  accelerating wound healing and reducing scarring: effective
Burn wounds; post-burn day 23
  open wound: very little open wound
Burn wounds; post-burn day 33, 1.5 mM in gel, n=4
  wound contraction: 50±4%
Burn wounds; post-burn day 34
  open wound: very little open wound
Burn wounds
  scarring versus vehicle-only control wounds: less scarring
Burn wounds; listed as TGF-β peptantagonist
  scarring versus vehicle-only control wounds: less scar formation
Burn wounds; post-burn day 41
  volume of scar tissue: 0.07±0.02 cm^3
Excision wounds; 1.5 mM in gel, topical
  contraction of the wound: attenuated contraction
  vertical (length of the healed wound) contraction versus vehicle only: less vertical
Excision wounds; [4]
  vertical (length of the healed wound) contraction versus vehicle only: contracted vertically less; also recorded: less vertical
Excision wounds
  deposition / immunostaining of fibronectin in excision wounds: diminished the deposition
  deposition / immunostaining of type I collagen in excision wounds: diminished the deposition
Excision wounds; listed as TGF-β peptantagonist
  deposition / immunostaining of fibronectin in excision wounds: less intensity of staining
  deposition / immunostaining of type I collagen in excision wounds: less intensity of staining
Excision wounds; post-excision day 41
  horizontal (width of the healed wound) contraction: almost contracted completely
